Source: article PMC9405102, “Targeted Modification and Structure-Activity Study of GL-29, an Analogue of the Antimicrobial Peptide Palustrin-2ISb” (Antibiotics, 2022)
Like-named read-outs stand apart in the source and are kept apart here. Where no end group is shown, it is not given here.

Columns and labels:
E. faecalis (NCTC 12697) [1] = assay type: cell-based, Enterococcus faecalis
Method: (§1) The antimicrobial activity of the peptides was determined through the minimum inhibitory concentrations (MICs) and the minimum bactericidal concentration (MBCs) using the broth-dilution method in a 96-well plate, as described in the previous study. Six bacteria, including the Gram-positive bacteria, S. aureus (ATCC CRM 6538), MRSA (ATCC CRM 12493) and E. faecalis (NCTC 12697), the Gram-negative bacteria, E. coli (ATCC CRM 8739), K. pneumoniae (ATCC CRM 43816) and P. aeruginosa (ATCC CRM 9027), the yeast, C. albicans (ATCC CRM 10231) and clinical isolates, S. aureus (B042 V2E1 A), MRSA (B038 V1S1 A), E. coli (ATCC BAA-2340) and K. pneumoniae (ATCC BAA-1705) were used in these assays to evaluate the antimicrobial potency of the two peptides by determining their MICs and MBCs. All bacteria were cultured in MHB and the yeast, C. albicans was cultured in YPD broth overnight. Then, the microorganisms were sub-cultured and diluted to the final concentration of 2 × 10^5 CFU/mL to 5 × 10^5 CFU/mL. The Norfloxacin and amphotericin B were used as positive controls for the bacteria and yeast, respectively. The assay was repeated three times, with five replicates at each time.

[2] = tested on: P. aeruginosa (ATCC CRM 9027); assay type: cell-based, Pseudomonas aeruginosa
Method: as §1

[3] = tested on: C. albicans (ATCC CRM 10231); assay type: cell-based, Candida albicans
Method: as §1

[4] = tested on: S. aureus (ATCC CRM 6538); assay type: cell-based, Staphylococcus aureus
Method: as §1

S. aureus (B042 V2E1 A) = assay type: cell-based, Staphylococcus aureus
Method: as §1

MRSA (ATCC CRM 12493) [5] = assay type: cell-based, methicillin-resistant S. aureus
Method: as §1

MRSA (B038 V1S1 A) = assay type: cell-based, methicillin-resistant S. aureus
Method: as §1

E. coli (ATCC BAA-2340) = assay type: cell-based, Escherichia coli
Method: as §1

E. coli (ATCC CRM 8739) [6] = assay type: cell-based, Escherichia coli
Method: as §1

[7] = tested on: K. pneumoniae (ATCC BAA-1705); assay type: cell-based, Klebsiella pneumoniae
Method: as §1

[8] = tested on: K. pneumoniae (ATCC CRM 43816); assay type: cell-based, Klebsiella pneumoniae
Method: as §1

[9] = tested on: S. aureus (ATCC CRM 6538); assay type: cell-based, Staphylococcus aureus; remark: listed apart in the source
Method: (§2) The MBIC and MBEC assays were performed to measure the inhibition and eradication of bacterial biofilm in the presence of different concentrations of peptides. Gram-positive bacteria were inoculated in Luria–Bertani (LB) broth at 37 °C overnight whereas Gram-negative bacteria were inoculated in tryptic soy broth (TSB), and then sub-cultured until reaching the logarithmic growth phase by measuring the OD values at a wavelength of 550nm. For the MBIC assay, 99 µL of diluted bacterial suspension (5 × 10^5 CFU/mL) was mixed with 1 µL of prepared peptide solutions in the wells of a round-bottomed 96-well plate, achieving the final concentrations from 512 to 1 µM, and then incubated at 37 °C for 24 h in a shaking incubator at 200 revolutions per minute (rpm). After this, the plate was washed twice by PBS and fixed with methanol for 30 min. For MBEC assay, 100 µL of diluted bacterial suspension (5 × 10^5 CFU/mL) was seeded into a round-bottomed 96-well plate and incubated at 37 °C for 24 h in a shaking incubator at 200 rpm to obtain mature biofilm. After this, plates were washed twice by PBS and incubated with different concentrations of peptide solution from 512 to 1 µM at 37 °C for 24 h. Afterwards, the plate was washed twice with PBS and fixed with methanol for 30 min. Then, both MBIC and MBEC plates were stained by 130 μL of 0.1% (g/v) crystal violet solutions for 30 min and washed with PBS until no apparent staining was observed. Evaporating crystal violet stains were dissolved by 33% (v/v) acetic acid, and the absorbance values were measured by a Synergy HT Microplate Reader (BioTek, Minneapolis, MN, USA) set to 595 nm. The minimum concentration that inhibited the formation of biofilm was defined when compared to the negative control group, as the MBIC. The minimum concentration that eradicated the biofilm was defined, when compared to the negative control group, as the MBEC. The biofilm assays were performed in triplicate.

E. faecalis (NCTC 12697) [10] = assay type: cell-based, Enterococcus faecalis; remark: listed apart in the source
Method: as §2

MRSA (ATCC CRM 12493) [11] = assay type: cell-based, methicillin-resistant S. aureus; remark: listed apart in the source
Method: as §2

E. coli (ATCC CRM 8739) [12] = assay type: cell-based, Escherichia coli; remark: listed apart in the source
Method: as §2

[13] = tested on: K. pneumoniae (ATCC CRM 43816); assay type: cell-based, Klebsiella pneumoniae; remark: listed apart in the source
Method: as §2

[14] = tested on: P. aeruginosa (ATCC CRM 9027); assay type: cell-based, Pseudomonas aeruginosa; remark: listed apart in the source
Method: as §2

[15] = clinical isolated strain S. aureus (B042 V2E1 A)
[16] = clinical isolated strain MRSA (B038 V1S1 A)
[17] = KPC-producing resistant strain E. coli (ATCC BAA-2340)
[18] = KPC-producing resistant strain K. pneumoniae (ATCC BAA-1705)

LFVNVLDKIR-NH2 [LF-10, LFVNVLDKIR-NH2]
>512 µM: MBC (E. faecalis (NCTC 12697) [1]; NCTC 12697) | MIC (E. faecalis (NCTC 12697) [1]; NCTC 12697) | MBC ([2]; ATCC CRM 9027) | MIC ([2]; ATCC CRM 9027) | MBC ([3]; ATCC CRM 10231) | MIC ([3]; ATCC CRM 10231) | MBC ([4]; ATCC CRM 6538) | MIC ([4]; ATCC CRM 6538) | MBC (S. aureus (B042 V2E1 A); B042 V2E1 A) | MIC (S. aureus (B042 V2E1 A); B042 V2E1 A) | MBC (MRSA (ATCC CRM 12493) [5]; ATCC CRM 12493) | MIC (MRSA (ATCC CRM 12493) [5]; ATCC CRM 12493) | MBC (MRSA (B038 V1S1 A); B038 V1S1 A) | MIC (MRSA (B038 V1S1 A); B038 V1S1 A) | MBC (E. coli (ATCC BAA-2340); ATCC BAA-2340) | MIC (E. coli (ATCC BAA-2340); ATCC BAA-2340) | MBC (E. coli (ATCC CRM 8739) [6]; ATCC CRM 8739) | MIC (E. coli (ATCC CRM 8739) [6]; ATCC CRM 8739) | MBC ([7]; ATCC BAA-1705) | MIC ([7]; ATCC BAA-1705) | MBC ([8]; ATCC CRM 43816) | MIC ([8]; ATCC CRM 43816) | MBEC ([9]; ATCC CRM 6538, 24 h) | MBIC ([9]; ATCC CRM 6538, 24 h) | MBEC (E. faecalis (NCTC 12697) [10]; NCTC 12697, 24 h) | MBIC (E. faecalis (NCTC 12697) [10]; NCTC 12697, 24 h) | MBEC (MRSA (ATCC CRM 12493) [11]; ATCC CRM 12493, 24 h) | MBIC (MRSA (ATCC CRM 12493) [11]; ATCC CRM 12493, 24 h) | MBEC (E. coli (ATCC CRM 8739) [12]; ATCC CRM 8739, 24 h) | MBIC (E. coli (ATCC CRM 8739) [12]; ATCC CRM 8739, 24 h) | MBEC ([13]; ATCC CRM 43816, 24 h) | MBIC ([13]; ATCC CRM 43816, 24 h) | MBEC ([14]; ATCC CRM 9027, 24 h) | MBIC ([14]; ATCC CRM 9027, 24 h)

VNVLDKIR-NH2 [VN-8, VNVLDKIR-NH2]
>512 µM: MBC (E. faecalis (NCTC 12697) [1]; E. faecalis (NCTC 12697)) | MIC (E. faecalis (NCTC 12697) [1]; E. faecalis (NCTC 12697)) | MBC ([2]; P. aeruginosa (ATCC CRM 9027)) | MIC ([2]; P. aeruginosa (ATCC CRM 9027)) | MBC ([3]; C. albicans (ATCC CRM 10231)) | MIC ([3]; C. albicans (ATCC CRM 10231)) | MBC ([4]; S. aureus (ATCC CRM 6538)) | MIC ([4]; S. aureus (ATCC CRM 6538)) | MBC (S. aureus (B042 V2E1 A); [15]) | MIC (S. aureus (B042 V2E1 A); [15]) | MBC (MRSA (ATCC CRM 12493) [5]; MRSA (ATCC CRM 12493)) | MIC (MRSA (ATCC CRM 12493) [5]; MRSA (ATCC CRM 12493)) | MBC (MRSA (B038 V1S1 A); [16]) | MIC (MRSA (B038 V1S1 A); [16]) | MBC (E. coli (ATCC BAA-2340); [17]) | MIC (E. coli (ATCC BAA-2340); [17]) | MBC (E. coli (ATCC CRM 8739) [6]; E. coli (ATCC CRM 8739)) | MIC (E. coli (ATCC CRM 8739) [6]; E. coli (ATCC CRM 8739)) | MBC [7, 18] | MIC [7, 18] | MBC ([8]; K. pneumoniae (ATCC CRM 43816)) | MIC ([8]; K. pneumoniae (ATCC CRM 43816)) | MBEC ([9]; biofilm eradication, S. aureus (ATCC CRM 6538)) | MBIC ([9]; biofilm formation, S. aureus (ATCC CRM 6538)) | MBEC (E. faecalis (NCTC 12697) [10]; biofilm eradication, E. faecalis (NCTC 12697)) | MBIC (E. faecalis (NCTC 12697) [10]; biofilm formation, E. faecalis (NCTC 12697)) | MBEC (MRSA (ATCC CRM 12493) [11]; biofilm eradication, MRSA (ATCC CRM 12493)) | MBIC (MRSA (ATCC CRM 12493) [11]; biofilm formation, MRSA (ATCC CRM 12493)) | MBEC (E. coli (ATCC CRM 8739) [12]; biofilm eradication, E. coli (ATCC CRM 8739)) | MBIC (E. coli (ATCC CRM 8739) [12]; biofilm formation, E. coli (ATCC CRM 8739)) | MBEC ([13]; biofilm eradication, K. pneumoniae (ATCC CRM 43816)) | MBIC ([13]; biofilm formation, K. pneumoniae (ATCC CRM 43816)) | MBEC ([14]; biofilm eradication, P. aeruginosa (ATCC CRM 9027)) | MBIC ([14]; biofilm formation, P. aeruginosa (ATCC CRM 9027))
